Assay [1] concerns the target T1, MKNK1 (Homo sapiens, UniProt Q9BUB5, T385D).
T1 construct: GST (N); purchased Carna Biosciences 02-145; host or cells: insect cells (baculovirus expression system)
Description: MKNK1 kinase high ATP assay (TR-FRET-based). Format: biochemical. As to conditions: Table 2c; 2 mM ATP, 15 min preincubation. The gist of the method:
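GST-tagged full-length human MKNK1 (aa 1-424, T344D) from insect cells, preincubated with compound 15 min at 22 °C. Reaction 30 min at 22 °C with 2 mM ATP and 0.06 μM biotinylated peptide in HEPES pH 7.5, Mg2+, DTT. Phosphopeptide detected by TR-FRET (665/622 ratio) with anti-pS6 (pSer236) antibody; normalised to no-inhibitor and no-enzyme controls.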

The target of assay [2] is T1, MKNK1. The assay is described as follows: MKNK1 kinase assay (MKNK1 TR-FRET assay). The format is biochemical. As to conditions: Table 1c; 10 μM ATP, 15 min preincubation. Background: Time-resolved FRET reads energy transfer from a long-lived donor to a nearby acceptor.

We go through 21 compounds from US20160287589A1, “SUBSTITUTED-IMIDAZOPYRIDAZINES” (BAYER PHARMA AKTIENGESELLSCHAFT, priority 2013, published 2016).

T1 sequence (Q9BUB5 1-424 isoform Q9BUB5-2 T344D): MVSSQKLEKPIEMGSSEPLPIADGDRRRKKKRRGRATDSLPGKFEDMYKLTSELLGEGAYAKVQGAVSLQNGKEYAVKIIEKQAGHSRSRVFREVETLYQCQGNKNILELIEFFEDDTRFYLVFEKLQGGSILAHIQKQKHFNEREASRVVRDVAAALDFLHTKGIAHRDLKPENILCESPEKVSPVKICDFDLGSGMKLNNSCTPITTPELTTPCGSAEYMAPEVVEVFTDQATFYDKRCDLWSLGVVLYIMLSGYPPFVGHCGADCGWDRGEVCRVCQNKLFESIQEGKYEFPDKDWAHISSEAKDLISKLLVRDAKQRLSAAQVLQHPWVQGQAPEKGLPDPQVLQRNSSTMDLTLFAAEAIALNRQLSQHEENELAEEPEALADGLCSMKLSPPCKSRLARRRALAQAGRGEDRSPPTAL

The term IC50 denotes the midpoint of a concentration-inhibition curve. The low end stands for inhibition by little substance, the high end for a need for much substance. As for `C[C@H](N)COc1ccc2ncc(-c3cc4c(N5C[C@@H](C)O[C@@H](C)C5)nccc4o3)n2n1` [III-19, (2S)-1-[(3-{4-[(2R,6S)-2,6-Dimethylmorpholin-4-yl]furo[3,2-c]pyridin-2-yl}imidazo[1,2-b]pyridazin-6-yl)oxy]propan-2-amine], the figures for the IC50 against MKNK1 [1] and at MKNK1 [2] were 42.7 nM and 12.2 nM, respectively.

On to `C[C@H](N)COc1ccc2ncc(-c3cc4c(N(C)CCCO)nccc4o3)n2n1` [III-20, 3-{[2-(6-{[(2S)-2-Aminopropyl]oxy}imidazo[1,2-b]pyridazin-3-yl)furo[3,2-c]pyridin-4-yl](methyl)amino}propan-1-ol], for which the IC50 was 10.5 nM against MKNK1 [1] and 3.9 nM on MKNK1 [2].

With `C[C@H](N)COc1ccc2ncc(-c3cc4c(N5CCC(N(C)C)CC5)nccc4o3)n2n1` [III-21, 1-[2-(6-{[(2S)-2-Aminopropyl]oxy}imidazo[1,2-b]pyridazin-3-yl)furo[3,2-c]pyridin-4-yl]-N,N-dimethylpiperidin-4-amine], the concentration for half-maximal inhibition (IC50) against MKNK1 [1] amounted to 33.2 nM; on MKNK1 [2], 12 nM.

Turning to `C[C@H](N)COc1ccc2ncc(-c3cc4c(N5CCC(CO)CC5)nccc4o3)n2n1` [III-22, {1-[2-(6-{[(2S)-2-Aminopropyl]oxy}imidazo[1,2-b]pyridazin-3-yl)furo[3,2-c]pyridin-4-yl]piperidin-4-yl}methanol], the IC50 worked out at 14.1 nM at MKNK1 [1] and 6.5 nM at MKNK1 [2].

Consider `C[C@H](N)COc1ccc2ncc(-c3cc4c(N5CCN(c6ccccc6)CC5)nccc4o3)n2n1` [III-23, (2S)-1-({3-[4-(4-Phenylpiperazin-1-yl)furo[3,2-c]pyridin-2-yl]imidazo[1,2-b]pyridazin-6-yl}oxy)propan-2-amine], for which the concentration for half-maximal inhibition (IC50) on MKNK1 [1] was found to be 45 nM; against MKNK1 [2] it was 16.6 nM.

On to `COC[C@H]1CCCN1c1nccc2oc(-c3cnc4ccc(OC[C@H](C)N)nn34)cc12` [III-24, (2S)-1-[(3-{4-[(2R)-2-(Methoxymethyl)pyrrolidin-1-yl]furo[3,2-c]pyridin-2-yl}imidazo[1,2-b]pyridazin-6-yl)oxy]propan-2-amine], for which the concentration for half-maximal inhibition (IC50) against MKNK1 [1] is 8.6 nM; against MKNK1 [2], 0.4 nM.

For the compound `C[C@H](N)COc1ccc2ncc(-c3cc4c(N5CCOC[C@H]5C)nccc4o3)n2n1` [III-25, (2S)-1-[(3-{4-[(3R)-3-Methylmorpholin-4-yl]furo[3,2-c]pyridin-2-yl}imidazo-[1,2-b]pyridazin-6-yl)oxy]propan-2-amine], the IC50 was 13.7 nM against MKNK1 [1] and 9.2 nM on MKNK1 [2].

With `CCN(CCOC(C)(C)C)c1nccc2oc(-c3cnc4ccc(OC[C@H](C)N)nn34)cc12` [III-26, 2-(6-{[(2S)-2-Aminopropyl]oxy}imidazo[1,2-b]pyridazin-3-yl)-N-(2-tert-butoxyethyl)-N-ethylfuro[3,2-c]pyridin-4-amine], the IC50 against MKNK1 [1] is 0.8 nM; against MKNK1 [2], 1.7 nM.

Consider `COC[C@@H]1CCCN1c1nccc2oc(-c3cnc4ccc(OC[C@H](C)N)nn34)cc12` [III-27, (2S)-1-[(3-{4-[(2S)-2-(Methoxymethyl)pyrrolidin-1-yl]furo[3,2-c]pyridin-2-yl}imidazo[1,2-b]pyridazin-6-yl)oxy]propan-2-amine], for which the IC50 against MKNK1 [1] is 97.5 nM; at MKNK1 [2] it was 31.1 nM.

For the compound `C[C@H](CN)Oc1ccc2ncc(-c3cc4c(N5CCOCC5)nccc4o3)n2n1` [III-30, (2R)-2-({3-[4-(Morpholin-4-yl)furo[3,2-c]pyridin-2-yl]imidazo[1,2-b]pyridazin-6-yl}oxy)propan-1-amine], the IC50 against MKNK1 [1] was found to be 10.4 nM; against MKNK1 [2] it was 5 nM.

Regarding `COC[C@H]1CCCN1c1nccc2oc(-c3cnc4ccc(O[C@H](C)CN)nn34)cc12` [III-31, (2R)-2-[(3-{4-[(2R)-2-(Methoxymethyl)pyrrolidin-1-yl]furo[3,2-c]pyridin-2-yl}imidazo[1,2-b]pyridazin-6-yl)oxy]propan-1-amine], the figures for the IC50 against MKNK1 [1] and at MKNK1 [2] were 3 nM and 0.5 nM, respectively.

Take `CCN(CCOC)c1nccc2oc(-c3cnc4ccc(O[C@H](C)CN)nn34)cc12` [III-32, 2-(6-{[(2R)-1-Aminopropan-2-yl]oxy}imidazo[1,2-b]pyridazin-3-yl)-N-ethyl-N-(2-methoxyethyl)furo[3,2-c]pyridin-4-amine]: the half-maximal inhibitory concentration (IC50) was 1.5 nM on MKNK1 [1] and 0.6 nM at MKNK1 [2].

On to `CCCN(CCOC)c1nccc2oc(-c3cnc4ccc(O[C@H](C)CN)nn34)cc12` [III-33, 2-(6-{[(2R)-1-Aminopropan-2-yl]oxy}imidazo[1,2-b]pyridazin-3-yl)-N-(2-methoxyethyl)-N-propylfuro[3,2-c]pyridin-4-amine], for which the IC50 was 1.3 nM against MKNK1 [1] and 1.1 nM against MKNK1 [2].

As to `COCCN(C)c1nccc2oc(-c3cnc4ccc(O[C@H](C)CN)nn34)cc12` [III-34, 2-(6-{[(2R)-1-Aminopropan-2-yl]oxy}imidazo[1,2-b]pyridazin-3-yl)-N-(2-methoxyethyl)-N-methylfuro[3,2-c]pyridin-4-amine], the figures for the concentration for half-maximal inhibition (IC50) against MKNK1 [1] and on MKNK1 [2] were 7.4 nM and 3.5 nM, respectively.

For `CCN(CCOC)c1nccc2oc(-c3cnc4ccc(OC[C@@H]5COCCN5)nn34)cc12` [III-35, N-Ethyl-N-(2-methoxyethyl)-2-{6-[(3S)-morpholin-3-ylmethoxy]imidazo[1,2-b]pyridazin-3-yl}furo[3,2-c]pyridin-4-amine], the figures for the IC50 at MKNK1 [1] and on MKNK1 [2] were 0.9 nM and 1 nM, respectively.

On to `c1cc2oc(-c3cnc4ccc(OC[C@@H]5COCCN5)nn34)cc2c(N2CCOCC2)n1` [III-36, 3-[4-(Morpholin-4-yl)furo[3,2-c]pyridin-2-yl]-6-[(3S)-morpholin-3-ylmethoxy]imidazo[1,2-b]pyridazine], for which the IC50 on MKNK1 [1] was found to be 37.3 nM; against MKNK1 [2] it was 11.6 nM.

As for `COC[C@H]1CCCN1c1nccc2oc(-c3cnc4ccc(OC[C@@H]5COCCN5)nn34)cc12` [III-37, 3-{4-[(2R)-2-(Methoxymethyl)pyrrolidin-1-yl]furo[3,2-c]pyridin-2-yl}-6-[(3S)-morpholin-3-ylmethoxy]imidazo[1,2-b]pyridazine], the concentration for half-maximal inhibition (IC50) at MKNK1 [1] was determined as 11.1 nM; against MKNK1 [2] it was 1.1 nM.

As for `CCN(CCOC)c1nccc2oc(-c3cnc4ccc(OC[C@H]5COCCN5)nn34)cc12` [III-38, N-Ethyl-N-(2-methoxyethyl)-2-{6-[(3R)-morpholin-3-ylmethoxy]imidazo[1,2-b]pyridazin-3-yl}furo[3,2-c]pyridin-4-amine], the values for the IC50 against MKNK1 [1] and at MKNK1 [2] were 4.8 nM and 0.5 nM, respectively.

On to `CCN(CCOC(C)(C)C)c1nccc2oc(-c3cnc4ccc(OC[C@@H]5COCCN5)nn34)cc12` [III-39, N-(2-tert-Butoxyethyl)-N-ethyl-2-{6-[(3S)-morpholin-3-ylmethoxy]imidazo-[1,2-b]pyridazin-3-yl}furo[3,2-c]pyridin-4-amine], for which the IC50 on MKNK1 [1] stood at 0.5 nM; on MKNK1 [2], 0.9 nM.

As for `CCN(CCO)c1nccc2oc(-c3cnc4ccc(OC[C@@H]5COCCN5)nn34)cc12` [III-40, 2-[Ethyl(2-{6-[(3S)-morpholin-3-ylmethoxy]imidazo[1,2-b]pyridazin-3-yl}furo[3,2-c]pyridin-4-yl)amino]ethanol], the results for the IC50 at MKNK1 [1] and on MKNK1 [2] were 2.6 nM and 1.5 nM, respectively.

As for `CCN(CCOC)c1nccc2oc(-c3cnc4ccc(OCC5CCCCN5)nn34)cc12` (stereo not drawn) [III-41, N-Ethyl-N-(2-methoxyethyl)-2-[6-(piperidin-2-ylmethoxy)imidazo[1,2-b]pyridazin-3-yl]furo[3,2-c]pyridin-4-amine], the IC50 at MKNK1 [1] came to 17.6 nM; at MKNK1 [2], 12 nM.
